The text below walks through data of the supplement of paper PMC10307832.

Common to all, as to assay: relative viability (nuclei count vs DMSO), 5 days (fraction); higher = more cells survive
Compound in the assay “Mirin + Tozasertib”: N=C1NC(=O)/C(=C/c2ccc(O)cc2)S1 [Mirin] + Cc1cc(Nc2cc(N3CCN(C)CC3)nc(Sc3ccc(NC(=O)C4CC4)cc3)n2)n[nH]1 [Tozasertib] (partner 0.1 µM)
The gist of the method:
(§1)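 For relative viability, nuclei counts in treated wells were divided by those in vehicle wells. Lung cancer cell lines had been pin-tool dosed in 1536-well plates the day after seeding and cultured for 5 days, then fixed and stained in one step (final 0.05% Triton X-100, 1% formaldehyde, 1 ug/ml Hoechst) and imaged at 4×. Doses were one drug alone or a fixed anchor-drug dose plus five library-drug doses (not always all listed) in √10 steps, and values are duplicate-plate medians.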

Compound in assay [1]: CCn1c(-c2nonc2N)nc2cnc(Oc3cccc(NC(=O)c4ccc(OCCN5CCOCC5)cc4)c3)cc21 + CS(=O)(=O)CCNCc1ccc(-c2ccc3ncnc(Nc4ccc(OCc5cccc(F)c5)c(Cl)c4)c3c2)o1 [Lapatinib] (partner 2 µM)
The essentials:
as §1

Compound in assay [2]: CCC1=CN=CN=C1N2CCN(CC2)CC3=NC4=C(N3)C=C(C=C4)C(F)(F)F + C[C@@H](Oc1cc(-c2cnn(C3CCNCC3)c2)cnc1N)c1c(Cl)ccc(F)c1Cl [Crizotinib] (partner 1 µM)
The gist of the method: as §1

Compound in the assay “Mirin + Linsitinib”: N=C1NC(=O)/C(=C/c2ccc(O)cc2)S1 [Mirin] + C[C@]1(O)C[C@@H](c2nc(-c3ccc4ccc(-c5ccccc5)nc4c3)c3c(N)nccn32)C1 [Linsitinib] (partner 1 µM)
The essentials: as §1

As for PC-3 [JPC-3], the relative viability came to 0.905 with Mirin + Tozasertib (first compound 0.25 µM); 0.978 in the assay with Mirin + Tozasertib (first compound 0.7906 µM); 0.893 with Mirin + Tozasertib (first compound 2.5 µM); 0.879 with Mirin + Tozasertib (first compound 7.906 µM); 0.899 with Mirin + Tozasertib (first compound 25 µM); 0.527 in assay [1] (first compound 0.04 µM). The relative viability was 0.499 in assay [1] (first compound 0.1265 µM); 0.438 in assay [1] (first compound 0.4 µM); 0.573 in assay [1] (first compound 1.265 µM); 0.522 in assay [1] (first compound 4 µM); 0.989 in assay [2] (first compound 0.04 µM); 0.919 in assay [2] (first compound 0.1265 µM). Besides, the relative viability in assay [2] (first compound 0.4 µM) amounted to 0.948; in assay [2] (first compound 1.265 µM) it was 0.92; in assay [2] (first compound 4 µM), 0.934; with Mirin + Linsitinib (first compound 0.25 µM) it was 1.01; with Mirin + Linsitinib (first compound 0.7906 µM), 1.03; in the assay with Mirin + Linsitinib (first compound 2.5 µM), 0.988. The relative viability with Mirin + Linsitinib (first compound 7.906 µM) was determined as 1.07; in the assay with Mirin + Linsitinib (first compound 25 µM), 1.03.
Consider PC-14, for which the relative viability worked out at 0.587 with Mirin + Tozasertib (first compound 0.25 µM); 0.581 in the assay with Mirin + Tozasertib (first compound 0.7906 µM); 0.589 in the assay with Mirin + Tozasertib (first compound 2.5 µM); 0.599 with Mirin + Tozasertib (first compound 7.906 µM); 0.566 in the assay with Mirin + Tozasertib (first compound 25 µM); 0.343 in assay [1] (first compound 0.04 µM). For the same cell line, the relative viability was determined as 0.227 in assay [1] (first compound 0.1265 µM); 0.232 in assay [1] (first compound 0.4 µM); 0.264 in assay [1] (first compound 1.265 µM); 0.283 in assay [1] (first compound 4 µM); 1.02 in assay [2] (first compound 0.04 µM); 0.781 in assay [2] (first compound 0.1265 µM). The relative viability in assay [2] (first compound 0.4 µM) is 0.976; in assay [2] (first compound 1.265 µM), 0.915; in assay [2] (first compound 4 µM), 1.06; with Mirin + Linsitinib (first compound 0.25 µM) it was 0.929; with Mirin + Linsitinib (first compound 0.7906 µM) it was 0.959; in the assay with Mirin + Linsitinib (first compound 2.5 µM), 1.03. The relative viability with Mirin + Linsitinib (first compound 7.906 µM) was 0.97; in the assay with Mirin + Linsitinib (first compound 25 µM), 1.08.
As to RERF-LC-KJ, the relative viability amounted to 0.488 in the assay with Mirin + Tozasertib (first compound 0.25 µM); 0.524 with Mirin + Tozasertib (first compound 0.7906 µM); 0.467 with Mirin + Tozasertib (first compound 2.5 µM); 0.424 with Mirin + Tozasertib (first compound 7.906 µM); 0.385 with Mirin + Tozasertib (first compound 25 µM); 0.933 in assay [1] (first compound 0.04 µM). Further, the relative viability in assay [1] (first compound 0.1265 µM) turned out to be 0.827; in assay [1] (first compound 0.4 µM), 0.717; in assay [1] (first compound 1.265 µM), 0.684; in assay [1] (first compound 4 µM) it was 0.606; in assay [2] (first compound 0.04 µM), 0.761; in assay [2] (first compound 0.1265 µM), 0.729. In addition, the relative viability was found to be 0.881 in assay [2] (first compound 0.4 µM); 0.913 in assay [2] (first compound 1.265 µM); 0.982 in assay [2] (first compound 4 µM); 0.962 in the assay with Mirin + Linsitinib (first compound 0.25 µM); 0.908 in the assay with Mirin + Linsitinib (first compound 0.7906 µM); 0.88 with Mirin + Linsitinib (first compound 2.5 µM). Besides, the relative viability came to 0.896 in the assay with Mirin + Linsitinib (first compound 7.906 µM) and 0.913 with Mirin + Linsitinib (first compound 25 µM).
In the case of SK-LU-1, the relative viability was 0.332 in the assay with Mirin + Tozasertib (first compound 0.25 µM); 0.325 with Mirin + Tozasertib (first compound 0.7906 µM); 0.346 with Mirin + Tozasertib (first compound 2.5 µM); 0.213 with Mirin + Tozasertib (first compound 7.906 µM); 0.209 with Mirin + Tozasertib (first compound 25 µM); 1.24 in assay [1] (first compound 0.04 µM). Also, the relative viability was found to be 0.662 in assay [1] (first compound 0.1265 µM); 0.611 in assay [1] (first compound 0.4 µM); 0.493 in assay [1] (first compound 1.265 µM); 0.449 in assay [1] (first compound 4 µM); 1 in assay [2] (first compound 0.04 µM); 1.1 in assay [2] (first compound 0.1265 µM). Also, the relative viability came to 0.99 in assay [2] (first compound 0.4 µM); 1.06 in assay [2] (first compound 1.265 µM); 1.02 in assay [2] (first compound 4 µM); 1.14 with Mirin + Linsitinib (first compound 0.25 µM); 1.15 with Mirin + Linsitinib (first compound 0.7906 µM); 1.17 in the assay with Mirin + Linsitinib (first compound 2.5 µM). For the same cell line, the relative viability with Mirin + Linsitinib (first compound 7.906 µM) turned out to be 0.74; with Mirin + Linsitinib (first compound 25 µM), 0.566.
Take SK-MES-1: the relative viability with Mirin + Tozasertib (first compound 0.25 µM) amounted to 0.95; with Mirin + Tozasertib (first compound 0.7906 µM), 1.14; in the assay with Mirin + Tozasertib (first compound 2.5 µM), 0.87; with Mirin + Tozasertib (first compound 7.906 µM) it was 0.936; with Mirin + Tozasertib (first compound 25 µM), 0.665; in assay [1] (first compound 0.04 µM) it was 0.493. For the same cell line, the relative viability in assay [1] (first compound 0.1265 µM) was determined as 0.434; in assay [1] (first compound 0.4 µM) it was 0.404; in assay [1] (first compound 1.265 µM), 0.453; in assay [1] (first compound 4 µM), 0.401; in assay [2] (first compound 0.04 µM), 1.01; in assay [2] (first compound 0.1265 µM), 1.01. In addition, the relative viability in assay [2] (first compound 0.4 µM) worked out at 0.942; in assay [2] (first compound 1.265 µM), 1.09; in assay [2] (first compound 4 µM), 1.19; in the assay with Mirin + Linsitinib (first compound 0.25 µM), 1.06; with Mirin + Linsitinib (first compound 0.7906 µM) it was 1.22; with Mirin + Linsitinib (first compound 2.5 µM) it was 1.18. Besides, the relative viability with Mirin + Linsitinib (first compound 7.906 µM) turned out to be 1.07; with Mirin + Linsitinib (first compound 25 µM), 1.26.
On to SW 1573, for which the relative viability in the assay with Mirin + Tozasertib (first compound 0.25 µM) was found to be 0.181; in the assay with Mirin + Tozasertib (first compound 0.7906 µM), 0.195; with Mirin + Tozasertib (first compound 2.5 µM) it was 0.234; with Mirin + Tozasertib (first compound 7.906 µM), 0.188; with Mirin + Tozasertib (first compound 25 µM) it was 0.108; in assay [1] (first compound 0.04 µM), 1.21. Further, the relative viability stood at 0.904 in assay [1] (first compound 0.1265 µM); 0.685 in assay [1] (first compound 0.4 µM); 0.627 in assay [1] (first compound 1.265 µM); 0.353 in assay [1] (first compound 4 µM); 0.81 in assay [2] (first compound 0.04 µM); 0.833 in assay [2] (first compound 0.1265 µM). Besides, the relative viability in assay [2] (first compound 0.4 µM) came to 0.968; in assay [2] (first compound 1.265 µM), 0.834; in assay [2] (first compound 4 µM), 0.922; with Mirin + Linsitinib (first compound 0.25 µM) it was 0.815; with Mirin + Linsitinib (first compound 0.7906 µM), 0.728; with Mirin + Linsitinib (first compound 2.5 µM), 0.79. Moreover, the relative viability in the assay with Mirin + Linsitinib (first compound 7.906 µM) was determined as 0.731; in the assay with Mirin + Linsitinib (first compound 25 µM), 0.648.
